Consider 39 compounds from US7718680B2 (priority 2004, dated 2010).

Like-named read-outs stand apart in the source and are kept apart here.

Assay [1] has as its target T1, Lethal Factor (LF) protease of anthrax toxin (Bacillus anthracis, UniProt P15917). Nature of the assay: biochemical.
In assay [2] the target is T1, Lethal Factor (LF) protease of anthrax toxin. In words: biochemical. This is another data set of the same source.
For assay [3], the system named is macrophages. The assay is classed as cell-based.

T1 sequence (P15917 34-809 limits assumed): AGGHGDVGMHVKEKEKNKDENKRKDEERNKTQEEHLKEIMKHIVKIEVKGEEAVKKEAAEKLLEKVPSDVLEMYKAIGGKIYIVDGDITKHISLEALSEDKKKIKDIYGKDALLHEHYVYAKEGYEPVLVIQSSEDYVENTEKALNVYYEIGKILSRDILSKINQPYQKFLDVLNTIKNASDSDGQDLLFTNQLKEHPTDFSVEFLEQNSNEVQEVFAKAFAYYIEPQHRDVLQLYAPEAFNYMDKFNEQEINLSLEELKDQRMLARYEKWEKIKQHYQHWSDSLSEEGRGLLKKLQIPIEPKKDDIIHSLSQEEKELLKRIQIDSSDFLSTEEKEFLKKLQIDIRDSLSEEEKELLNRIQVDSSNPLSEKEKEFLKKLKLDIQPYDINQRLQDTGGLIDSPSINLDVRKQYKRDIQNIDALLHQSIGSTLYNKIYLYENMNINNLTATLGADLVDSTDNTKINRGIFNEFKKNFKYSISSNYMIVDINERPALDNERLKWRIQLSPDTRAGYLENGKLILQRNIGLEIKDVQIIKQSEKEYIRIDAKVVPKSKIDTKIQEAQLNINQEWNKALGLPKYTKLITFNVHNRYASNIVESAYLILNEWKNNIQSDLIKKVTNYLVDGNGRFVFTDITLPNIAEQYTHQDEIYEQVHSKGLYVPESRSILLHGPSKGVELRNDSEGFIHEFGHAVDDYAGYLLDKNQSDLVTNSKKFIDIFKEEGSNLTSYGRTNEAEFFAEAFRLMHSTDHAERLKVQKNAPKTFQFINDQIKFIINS

In the case of `CNC(=O)[C@H](Cc1c[nH]c2ccccc12)NC(=O)[C@@H](CC(=O)NO)CC(C)C` [GM6001, reference compound], the “LF activity / cleavage of fluorinated peptide seen by 19F NMR” value (from here on “LF activity / cleavage”) in assay [1] is on record as “reduced by approximately half”.
Broadly, the IC50 is the midpoint of a concentration-inhibition curve. Take `O=C(O)CN1C(=O)/C(=C/c2ccc(-c3ccccc3)o2)SC1=S` [BI-11C12]: in assay [2], the “pIC50 Obs” value was 4.78. Also, in assay [2] (read-out: IC50), the IC50 was found to be 16.6 µM.
Broadly, the Ki is a measure of affinity in units of concentration, obtained from inhibition or displacement. What is called inhibition is the change of the read-out against control, counted positive when it falls. Take `O=C(O)CCN1C(=O)/C(=C/c2ccc(-c3ccc(Cl)cc3)o2)SC1=S` [BI-MFM3]: in assay [2], the affinity, expressed as Ki, was 0.8 ± 0.3 µM; the “effect on the Vmax” value is on record as “no effect”; the “pIC50 Obs” value was determined as 5.77; the type of inhibition entry is on record as “competitive”. In addition, the IC50 in assay [2] (read-out: IC50) was determined as 1.7 µM. In addition, the inhibition at 10 µM in assay [2] (read-out: LF inhibition) was over 70%. In assay [1], the “LF activity / cleavage” value is reported as “Only the ^19F NMR signal relative to uncleaved peptide appears” and the “inhibitory activity relative to GM6001” value is given as “about twice as strong as GM6001”.
Take `O=C(O)CN1C(=O)S/C(=C\c2ccc(-c3ccc(Cl)c(Cl)c3)o2)C1=O` [BI-11D8]: the “pIC50 Obs” value in assay [2] was found to be 5.25. Besides, in assay [2] (read-out: IC50), the IC50 was 5.6 µM.
On to `O=C1NC(=S)S/C1=C\c1ccc(-c2ccc(Cl)c(Cl)c2)o1` [Compound 13], for which the IC50 in assay [2] (read-out: IC50) was 7.4 µM. In addition, the inhibition at 10 µM in assay [2] (read-out: LF inhibition) is over 70%.
Regarding `O=C(O)CN1C(=O)/C(=C/c2ccc(-c3cc(C(F)(F)F)ccc3Cl)o2)SC1=S` [BI-11D9], half-maximal inhibition in assay [2] (IC50) required 5.9 µM.
With `O=C(O)CN1C(=O)/C(=C/c2cccs2)SC1=S` [BI-11D1], the “pIC50 Obs” value in assay [2] is 4.10. The IC50 in assay [2] (read-out: IC50) amounted to 79.4 µM.
`O=C(O)CN1C(=O)/C(=C/c2ccc(-c3ccc(Cl)c(Cl)c3)o2)SC1=S` [BI-11B2]: the “pIC50 Obs” value in assay [2] came to 6.58. For the same compound, the IC50 in assay [2] (read-out: IC50) turned out to be 0.265 µM. For the same compound, the “potency relative to GM6001” value in assay [3] was found to be 100 fold.
Regarding `O=C1NC(=S)NC(=O)C1=Cc1ccc(-c2ccc(Cl)cc2)o1` [BI-11B12], the “pIC50 Obs” value in assay [2] is 5.36. Moreover, the IC50 in assay [2] (read-out: IC50) worked out at 4.4 µM.
Turning to `CN1C(NC(=O)O)=NC(=O)/C1=C\c1ccc(-c2ccc(Cl)cc2)o1` [BI-11C11], in assay [2], the IC50 is over 100 µM and the “pIC50 Obs” value was over 4.
For the compound `O=C(O)c1ccc(-c2ccc(/C=C3\SC(=S)N(Cc4cccnc4)C3=O)o2)cc1Cl` [Compound 11], the IC50 in assay [2] (read-out: IC50) came out at 9.9 µM.
In the case of `NS(=O)(=O)c1ccc(-c2ccc(/C=C3\SC(=S)N(CC(=O)O)C3=O)o2)cc1` [Compound 12], in assay [2] (read-out: IC50), the IC50 is 9.1 µM.
For `O=C(O)CN1C(=O)/C(=C/c2ccc(-c3ccccc3)s2)SC1=S` [BI-11B10], the “pIC50 Obs” value in assay [2] is reported as 6.13. In addition, the IC50 in assay [2] (read-out: IC50) is 0.74 µM.
The matching figures for `O=C1NC(=S)NC(=O)C1=Cc1ccc(-c2ccccc2)s1` [BI-11C4]: 5.92 and 1.2 µM.
The matching figures for `O=C(O)CN1C(=O)/C(=C/c2ccc(-c3ccc(Cl)cc3)o2)SC1=S` [BI-11A9]: 6.05 and 0.9 µM.
Turning to `O=C1NC(=S)S/C1=C\c1ccc(-c2ccc(Br)c(Cl)c2)o1` [Compound 14], the IC50 in assay [2] (read-out: IC50) is 7 µM. The inhibition at 10 µM in assay [2] (read-out: LF inhibition) was over 70%.
`COc1ccc(-c2cnc(/C=C3\SC(=S)N(CC(=O)O)C3=O)s2)cc1OC` [BI-11D6]: the “pIC50 Obs” value in assay [2] was 5.30. In assay [2] (read-out: IC50), the IC50 is 5 µM.
Turning to `O=C(O)CN1C(=O)/C(=C/c2ccc(-c3ccc(Br)cc3)o2)SC1=S` [BI-11A10], in assay [2], the “pIC50 Obs” value stood at 6.07. Further, the IC50 in assay [2] (read-out: IC50) came to 0.85 µM.
Turning to `O=C(O)CN1C(=O)/C(=C/c2ccc(-c3ccc(Cl)cc3)s2)SC1=S` [BI-11D10], in assay [2], the “pIC50 Obs” value is 5.49. Further, in assay [2] (read-out: IC50), the IC50 turned out to be 3.2 µM.
Regarding `O=C(O)CN1C(=O)/C(=C/c2ncc(-c3ccc(Cl)cc3)s2)SC1=S` [BI-11D5], in assay [2], the “pIC50 Obs” value was found to be 5.00. In assay [2] (read-out: IC50), the IC50 was found to be 10 µM.
`O=C(O)CN1C(=O)S/C(=C\c2ccc(/C=C3\SC(=S)N(CC(=O)O)C3=O)s2)C1=O` [BI-11E2] had an IC50 in assay [2] of 1.58 µM.
Consider `C=CCN1C(=O)/C(=C/c2ccc(-c3ccc(F)cc3)o2)SC1=S` [Compound 3], for which the IC50 in assay [2] (read-out: IC50) is 50 µM.
For the compound `O=C1/C(=C/c2ccc(-c3ccccc3[N+](=O)[O-])o2)SC(=S)N1CCc1ccccc1` [Compound 6], in assay [2] (read-out: IC50), the IC50 turned out to be 31.9 µM.
Regarding `O=C(O)CN1C(=O)/C(=C/c2ccc(-c3cc(C(F)(F)F)ccc3Cl)o2)SC1=S` [BI-11B3], in assay [2], affinity was put at a Ki of 0.032 µM and the “pIC50 Obs” value was found to be 6.71. Also, the concentration for half-maximal inhibition (IC50) in assay [2] (read-out: IC50) stood at 0.195 µM. In addition, the “LF activity / cleavage” value in assay [1] was “potent LF inhibition”. Also, the “potency relative to GM6001” value in assay [3] is reported as 100 fold.
Turning to `O=C(O)CN1C(=O)/C(=C/c2ccc(-c3ccc(I)cc3)o2)SC1=S` [Compound 16], the IC50 in assay [2] (read-out: IC50) amounted to 5.5 µM. In addition, the inhibition at 10 µM in assay [2] (read-out: LF inhibition) is over 70%.
In the case of `O=C1/C(=C/c2ccc(-c3ccc(Cl)cc3)o2)SC(=S)N1Cc1ccco1` [Compound 2], the IC50 in assay [2] (read-out: IC50) was 150 µM.
For the compound `COc1ccc(-c2ccc(C=C3C(=O)NC(=S)NC3=O)o2)cc1Cl` [BI-11C1], the “pIC50 Obs” value in assay [2] is 5.52. The IC50 in assay [2] (read-out: IC50) worked out at 3 µM.
`O=C(O)CCCN1C(=O)/C(=C/c2ccc(-c3ccc(Br)cc3)o2)SC1=S` [Compound 21]: the IC50 in assay [2] (read-out: IC50) is 2.3 µM.
`O=C(O)CN1C(=O)/C(=C/c2ccc(-c3ccc(Cl)cc3[N+](=O)[O-])o2)SC1=S` [BI-11A11]: in assay [2], the “pIC50 Obs” value was determined as 6.30. Moreover, the IC50 in assay [2] (read-out: IC50) was determined as 0.5 µM.
The corresponding values for `O=C1NC(=S)NC(=O)C1=Cc1ccc(-c2ccc(Cl)c(Cl)c2)o1` [BI-11C3] are 5.68 and 2.1 µM.
Take `O=C(O)CN1C(=O)/C(=C/c2nccs2)SC1=S` [BI-11D2]: the “pIC50 Obs” value in assay [2] is recorded as 4.14. The IC50 in assay [2] (read-out: IC50) worked out at 72.4 µM.
Take `CN1C(=N)NC(=O)/C1=C\c1ccc(-c2cc(C(F)(F)F)ccc2Cl)o1` [BI-11B11]: in assay [2], the “pIC50 Obs” value is on record as 4.
In the case of `O=C(O)CN1C(=O)/C(=C/c2ccc(-c3cccs3)s2)SC1=S` [BI-11D3], in assay [2], the “pIC50 Obs” value was found to be 5.64.
For the compound `C=CCN1C(=O)/C(=C/c2ccc(-c3ccc(C(=O)O)c(Cl)c3)o2)SC1=S` [Compound 20], in assay [2] (read-out: IC50), the IC50 came out at 2.7 µM.
As for `O=C(O)CN1C(=O)/C(=C/c2ccco2)SC1=S` [BI-9B9b], the “pIC50 Obs” value in assay [2] is given as 3.85. Besides, in assay [2] (read-out: IC50), the IC50 turned out to be 140 µM. Also, the inhibition at 140 µM in assay [2] (read-out: LF inhibition) and in assay [1] (read-out: LF inhibition) was 50% each time.
With `O=C(O)CN1C(=O)/C(=C/c2ncc(-c3ccc(F)cc3)s2)SC1=S` [BI-11E3], the “pIC50 Obs” value in assay [2] is listed as 4.65. For the same compound, the IC50 in assay [2] (read-out: IC50) came out at 22.4 µM.
As to `O=C(O)CN1C(=O)/C(=C/c2ncc(-c3ccc(Br)cc3)s2)SC1=S` [BI-11E4], the “pIC50 Obs” value in assay [2] turned out to be 5.36. Also, the IC50 in assay [2] (read-out: IC50) is 4.4 µM.
Consider `O=C1NC(=S)NC(=O)C1=Cc1ccc(-c2cc(C(F)(F)F)ccc2Cl)o1` [BI-11C2], for which the “pIC50 Obs” value in assay [2] stood at 5.89. For the same compound, in assay [2] (read-out: IC50), the IC50 stood at 1.3 µM.
In the case of `CN1C(=N)NC(=O)/C1=C\c1ccc(-c2ccc(Cl)cc2)o1` [BI-11C5], in assay [2], the “pIC50 Obs” value is 3.70. Also, the IC50 in assay [2] (read-out: IC50) was determined as 200 µM.
